Data as given in patent US20020156277A1, “Synthesis and methods of use of purine analogues and derivatives” (priority 2001, published 2002).
Read-outs that look alike come from different tables or passages of the source.

How the values were obtained:
mice [1] = test: Passive avoidance test (block of cycloheximide-induced amnesia); type: in vivo; settings: Mus musculus, 2 h, intraperitoneal administration two hours prior to training, amnestic agent 30 mg/kg cycloheximide i.p., read-out: minimum effective dose (MED)
Protocol: Passive avoidance is an acute memory paradigm in which mice are allowed to enter a dark compartment from a lighted compartment, but are given a footshock (2 mA for 5 seconds) when they enter the dark compartment. […] If an amnestic agent (30 mg/kg cycloheximide i.p. in saline) immediately after the training session is given to the animals, they will make the transition into the dark compartment (i.e., memory of the shock is lost). Compounds with suspected nootropic or anti-amnestic effects are given by i.p. administration two hours prior to the training trial in attempt to block the effects of cycloheximide. […] This behavioral response is defined as passive avoidance. A no effect response in this test is defined as a failure to stay in the lighted compartment for 120 seconds.

mice [2] = test: as above; type: in vivo; settings: Mus musculus, oral administration, amnestic agent 30 mg/kg cycloheximide i.p., read-out: minimum effective dose (MED)

## CCOC(=O)c1ccc(NC(=O)CCn2cnc3c(=O)n(Cc4ccccc4)cnc32)cc1 [Example 1, 4-[3-(1-benzyl-6-oxo-1,6-dihydropurin-9-yl)propionylamino]benzoic acid ethyl ester]
Mice [1]
  minimal effective dose: 0.0003 mg/kg
Mice [2]
  minimal effective dose: 0.01 mg/kg

## CCCCn1cnc2c(ncn2CCC(=O)Nc2ccc(C(=O)OCC)cc2)c1=O [Example 2, 4-[3-(1-butyl-6-oxo-1,6-dihydropurin-9-yl)propionylamino]benzoic acid ethyl ester]
Mice [1]
  minimal effective dose: 0.001 mg/kg

## CCOC(=O)c1ccc(NC(=O)CCn2cnc3c(=O)n(C)cnc32)cc1 [Example 3, 4-[3-(1-methyl-6-oxo-1,6-dihydropurin-9-yl)propionylamino]benzoic acid ethyl ester]
Mice [1]
  minimal effective dose: 0.1 mg/kg

## CCOC(=O)c1ccc(NC(=O)CCn2cnc3c(=O)n(CCN(C)C)cnc32)cc1 [Example 4, 4-[3-(1-(2-dimethylaminoethyl)-6-oxo-1,6-dihydropurin-9-yl)propionylamino]benzoic acid ethyl ester]
Mice [1]
  minimal effective dose: 1 mg/kg

## CCOC(=O)c1ccc(NC(=O)CCn2cnc3c(=O)[nH]c(=O)[nH]c32)cc1 [Example 5, 4-[3-(2,6-dioxo-1,2,3,6-tetrahydropurin-9-yl)propionylamino]benzoic acid ethyl ester]
Mice [1]
  minimal effective dose: 0.001 mg/kg

## CCOC(=O)c1ccc(NC(=O)CCn2cnc3c(N(C)C)ncnc32)cc1 [Example 7, 4-[3-(6-dimethylaminopurin-9-yl)propionylamino]benzoic acid ethyl ester]
Mice [1]
  minimal effective dose: 0.01 mg/kg

## CCOC(=O)c1ccc(NC(=O)CCn2cnc3c(Cl)nc(N)nc32)cc1 [Example 8, 4-[3-(2-amino-6-chloropurin-9-yl)propionylamino]benzoic acid ethyl ester]
Mice [1]
  minimal effective dose: 0.01 mg/kg

## CCOC(=O)c1ccc(NC(=O)C(C)n2cnc3c(=O)[nH]c(=S)[nH]c32)cc1 (stereo not drawn) [Example 9, 4-[2-(6-oxo-2-thioxo-1,2,3,6-tetrahydropurin-9-yl)propionylamino]benzoic acid ethyl ester]
Mice [1]
  minimal effective dose: 0.0001 mg/kg
Mice [2]
  minimal effective dose: 0.001 mg/kg

## CCCCc1nc2c(ncn2C(C)C(=O)Nc2ccc(C(=O)OCC)cc2)c(=O)[nH]1 (stereo not drawn) [Example 10, 4-[2-(2-butyl-6-oxo-1,6-dihydropurin-9-yl)propionylamino]benzoic acid ethyl ester]
Mice [1]
  minimal effective dose: 0.1 mg/kg

## CCOC(=O)c1ccc(NC(=O)C(C)n2cnc3c(=O)[nH]c(-c4ccccc4)nc32)cc1 (stereo not drawn) [Example 11, 4-[2-(6-oxo-2-phenyl-1,6-dihydropurin-9-yl)propionylamino]benzoic acid ethyl ester]
Mice [1]
  minimal effective dose: 10 mg/kg

## COC(=O)c1ccc(N(C)C(=O)CCn2cnc3c(Cl)ncnc32)cc1 [Example 12, 4-{[3-(6-chloropurin-9-yl)propionyl]methylamino}benzoic acid methyl ester]
Mice [1]
  minimal effective dose: 0.0001 mg/kg

## O=C(CCn1cnc2c(=O)n(Cc3ccccc3)cnc21)NCCCN1CCCC1=O [Example 13, 3-(1-benzyl-6-oxo-1,6-dihydropurin-9-yl)-N-[3-(2-oxopyrrolidin-1-yl)propyl]propionamide]
Mice [1]
  minimal effective dose: 1 mg/kg

## O=C(CCn1cnc2c(=O)n(Cc3ccccc3)cnc21)NCCNC(=O)CN1CCCC1=O [Example 14, 3-(1-benzyl-6-oxo-1,6-dihydropurin-9-yl)-N-{2-[2-(2-oxopyrrolidin-1-yl)acetylamino]ethyl}propionamide]
Mice [1]
  minimal effective dose: 1 mg/kg
